Test results as given in patent publication US6211215A, “Heterocyclic compounds, their production and use” (Takeda Chemical Industries, Ltd., priority 1996, dated 2001).

Assays:
MDA-MB-453 [1] = assay: In vitro inhibition of cell proliferation (2); assay type: cell-based; conditions: Homo sapiens, 72 h; Breast cancer MDA-MB-453; 3 days; SRB
Description: (§1) 100 μl (containing 2,000 cells) of a cell suspension of human breast cancer cell line MDA-MB-453 was seeded in each well of the 96-well microtiter plates. The cultures were incubated at 37° C. in a 5% carbon dioxide gas incubator. On the next day, 100 μl of the 2-fold serial dilution of each compound solution was added to each well and the mixtures were cultured for 3 days. The solution containing the compound was removed and the cells were washed with water. To the cells was added a 0.4% (W/V) dye SRB (dissolved in 1% acetic acid) solution to fix and stain the cell protein (Skehan P. et al., Journal of the National Cancer Institute Vol.82, pp.1107-1112, 1990). The dye solution was removed and the fixed and stained cell protein was washed. The protein-bound dye was extracted with 200 μl of 10 mM Tris buffer. The optical density of the extracted dye was determined at the wavelength of 540 nm to estimate the quantity of the cells in terms of the protein quantity. Designating the protein quantity in the control to which no compound solution was added as 100%, the proportion of the residual protein quantity in each treated group was calculated, and IC50, which was concentration of the compound required to inhibit the residual protein quantity to 50% the quantity of the control, was calculated.

LNCaP = assay: Selective in vitro inhibition of breast cancer and prostate cancer cell growth; assay type: cell-based; conditions: Homo sapiens, 72 h; Prostate cancer LNCaP; 3 days; SRB; read-out: IC50, inhibition of cell proliferation
Description: (§2) 100 μl (containing 2,000 cells) of a cell suspension of various human cancer cell lines shown in [Table 7] was seeded in each well of the 96-well microtiter plates. The cells were incubated at 37° C. in a 5% carbon dioxide gas incubator. Next day, 100 μl of a 2 fold serial dilution of a compound solution was added to each well. The cultures were incubated for 3 days. The solution containing the compound was removed and the cells were washed with water. To the cells was added a 0.4% (V/W) dye SRB (dissolved in 1% acetic acid) solution to fix and stain the cell protein. The dye solution was removed and the fixed and stained cell protein was washed. The protein-bound dye was extracted with 200 μl of 10 mM Tris buffer. The optical density of the extracted dye was determined at the wavelength of 540 nm to estimate the quantity of the cells in terms of the protein quantity. Designating the protein quantity in the control to which no compound solution was added as 100%, the proportion of the residual protein quantity in each treated group was calculated, and IC50, which was the concentration of the compound required to inhibit the residual protein quantity to 50% the quantity of the control, was calculated.

MCF-7 = assay: as above; assay type: cell-based; conditions: Homo sapiens, MCF7, 72 h; Breast cancer MCF-7; 3 days; SRB; read-out: IC50, inhibition of cell proliferation
Description: as §2

MDA-MB-453 [2] = assay: as above; assay type: cell-based; conditions: Homo sapiens, 72 h; Breast cancer MDA-MB-453; 3 days; SRB; read-out: IC50, inhibition of cell proliferation
Description: as §2

MRC5 = assay: as above; assay type: cell-based; conditions: Homo sapiens, 72 h; Normal MRC5; 3 days; SRB; read-out: IC50, inhibition of cell proliferation
Description: as §2

PC3 = assay: as above; assay type: cell-based; conditions: Homo sapiens, PC-3, 72 h; Prostate cancer PC3; 3 days; SRB; read-out: IC50, inhibition of cell proliferation
Description: as §2

[3] = system: human breast cancer cell line, MDA-MB-453; assay: In vivo mammary cancer inhibiting effect (2); set-up: species or system female Balb/C strain athymic nude mice; conditions: oral, gained tumor volume vs control
Description: 5,000,000 cells of human breast cancer cell line, MDA-MB-453, were suspended in a gelmatrix solution. The suspension was subcutaneously implanted at the breast in 7-week-old female Balb/C strain athymic nude mice (Friedman R. et al., Proceedings of the National Academy of Sciences of the U.S.A. Vol. 87, pp.6698-6702, 1990). Twelve days after the implantation, the diameters of tumors were determined. For the experiment were used 5 mice per group with similar tumor size. Compound 72 or 109 of the present invention was suspended in a 5% gum arabic solution (physiological saline) and administered orally twice daily in dose of 60 mg/kg or 90 mg/kg body weight for 10 days. On the day when the dosing was ended, the diameters of tumors were measured. Tumor volume was calculated by the following formula: volume of tumor=longest diameter×shortest diameter×shortest diameter×1/2. The growth rate of tumors was obtained as the proportion of the gained tumor volume which was substracted the initial volume from the final volume in the treated animals to the gained tumor volume which was substracted the initial volume from the final volume in the control animals. The body weights of mice administered with compounds of the present invention were measured during the experiment to observe no decrease.

[4] = system: human prostatic cancer cell line, LNCaP; assay: In vivo inhibition of prostate cancer (1); set-up: species or system male Balb/C-strain athymic nude mice; conditions: for Tumor growth rate (%): oral, gained tumor volume vs control; for Inhibition of implanted tumor growth: LNCaP, athymic nude mice
Description: 5,000,000 cells of human prostatic cancer cell line, LNCaP, were suspended in a gelmatrix solution and implanted subcutaneously at the breast in 8-week old male Balb/C-strain athymic nude mice (Friedman R. et al., Proceedings of the National Academy of Sciences of the U.S.A. Vol. 87, pp.6698-6702, 1990). 42 days (in the case of compound 72) or 57 days (in the case of compound 109) after the implantation, the diameters of tumors were measured. Five mice per group with similar tumor size were used for the experiment. Compounds 72 or 109 of the present invention was suspended in a 5% gum arabic solution (physiological saline) and administered orally twice daily in a dose of 60 mg/kg and 90 mg/kg body weight for 10 days. After the completion of the dosing, the diameters of tumor were measured. The tumor volume was calculated by the following formula: volume of tumor=longest diameter×shortest diameter×shortest diameter×1/2. The growth rate of tumors was obtained as the proportion of the gained tumor volume which was subtracted the initial volume from the final volume in the treated animals to the gained tumor volume which was subtracted the initial volume from the final volume in the control animals. The body weights of mice administered with compounds of the present invention were measured during the experiment to observe no decrease.

HER2 [5] = molecular target: T1, HER2 (Homo sapiens, UniProt P04626); assay: Inhibition of phosphorylation of receptor tyrosine in human breast cancer cells (2), MCF-7, heregulin-stimulated; assay type: cell-based; set-up: Human breast cancer cell line MCF-7 was used; endogenous in cells; host or cells: MCF-7; conditions: heregulin control = 100%, read-out: Phosphorylation of receptor tyrosine residue (%); for activity at 0.4 µM: MCF7, 0.4 μM; for activity at 1.6 µM: MCF7, 1.6 μM; for activity at 6.3 µM: MCF7, 6.3 μM; for activity at 25 µM: MCF7, 25 μM
Description: Human breast cancer cell line MCF-7 was used. 1,000 μl of the cell suspension (250,000 cells) was seeded in each well of the 24-well plates. The culture were incubated at 37° C. in a 5% carbon dioxide gas incubator. On the next day, 100 μl of the 10-fold serial dilution of each compound solution was added to each well and, 2 hours later, 0.5 μg/ml of heregulin was added to it. After 5 minutes the extract solution was added to it to terminate the reaction, and the protein fraction was extracted. The protein was fractionated by the protein electrophoresis. The protein in the electrophoretic gel was transferred to a nylon filter. The filter was allowed to react with the phosphorylated tyrosine-specific antibody. The reaction product was fluorescence-labeled to expose a photofilm. The intensity of the exposure on the photofilm was quantitated by an image-analyzing apparatus. The proportion of the phosphorylation of HER2 tyrosine in the cells added with a compound solution of each concentration was calculated designating the phosphorylation of HER2 tyrosine in the heregulin-added cells as 100%.
Target sequence in this assay (P04626 23-1255): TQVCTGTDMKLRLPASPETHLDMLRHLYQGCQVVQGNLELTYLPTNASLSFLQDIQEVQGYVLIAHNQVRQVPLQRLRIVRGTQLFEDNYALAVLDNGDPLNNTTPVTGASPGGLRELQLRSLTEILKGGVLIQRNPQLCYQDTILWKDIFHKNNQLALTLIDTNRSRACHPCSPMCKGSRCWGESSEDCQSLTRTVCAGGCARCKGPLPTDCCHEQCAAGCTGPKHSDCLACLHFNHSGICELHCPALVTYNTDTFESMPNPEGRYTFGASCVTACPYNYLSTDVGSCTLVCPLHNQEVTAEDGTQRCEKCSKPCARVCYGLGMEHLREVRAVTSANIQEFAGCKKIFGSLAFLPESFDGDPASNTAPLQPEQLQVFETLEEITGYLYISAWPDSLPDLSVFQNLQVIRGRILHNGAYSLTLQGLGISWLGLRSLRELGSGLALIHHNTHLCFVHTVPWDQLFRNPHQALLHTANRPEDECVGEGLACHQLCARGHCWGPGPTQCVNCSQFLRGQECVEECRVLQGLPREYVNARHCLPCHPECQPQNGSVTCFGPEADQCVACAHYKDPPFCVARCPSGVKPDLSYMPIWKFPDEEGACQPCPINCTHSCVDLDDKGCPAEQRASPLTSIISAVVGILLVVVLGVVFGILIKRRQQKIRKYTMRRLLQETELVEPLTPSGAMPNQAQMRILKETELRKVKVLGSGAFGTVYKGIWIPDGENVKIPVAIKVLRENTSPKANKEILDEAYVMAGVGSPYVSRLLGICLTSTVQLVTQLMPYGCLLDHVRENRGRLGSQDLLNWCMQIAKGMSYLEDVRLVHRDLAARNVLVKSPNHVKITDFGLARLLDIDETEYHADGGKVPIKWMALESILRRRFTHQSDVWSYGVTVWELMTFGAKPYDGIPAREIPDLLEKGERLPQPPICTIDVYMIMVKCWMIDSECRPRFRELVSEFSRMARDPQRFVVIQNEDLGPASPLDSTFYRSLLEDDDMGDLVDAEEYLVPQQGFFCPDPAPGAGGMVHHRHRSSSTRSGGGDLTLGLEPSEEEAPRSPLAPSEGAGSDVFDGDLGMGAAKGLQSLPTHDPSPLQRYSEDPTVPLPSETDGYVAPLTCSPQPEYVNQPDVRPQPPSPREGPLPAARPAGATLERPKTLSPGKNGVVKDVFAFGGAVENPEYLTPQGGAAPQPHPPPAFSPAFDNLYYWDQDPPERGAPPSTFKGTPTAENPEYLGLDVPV

T-47D = assay: Selective in vitro inhibition of breast cancer and prostate cancer cell growth; assay type: cell-based; conditions: Homo sapiens, T47D, 72 h; Breast cancer T-47D; 3 days; SRB; read-out: IC50, inhibition of cell proliferation
Description: as §2

MDA-MB-453 [6] = assay: In vitro inhibition of cell proliferation (1); assay type: cell-based; conditions: Homo sapiens, 72 h; Breast cancer MDA-MB-453; 3 days; SRB
Description: as §1

HER2 [7] = molecular target: T1, HER2; assay: Inhibition of the activity of human growth factor receptor (HER2) tyrosine kinase; assay type: biochemical; set-up: the tyrosine kinase domain of the human HER2 gene was cloned; made in house; host or cells: insect cell line SF-21 (recombinant insect virus vector); conditions: HER2 receptor type tyrosine kinase; ELISA with HER3 substrate; read-out: Concentration of inhibiting HER2 (IC50)
Text: As enzyme standard, the tyrosine kinase domain of the human HER2 gene was cloned to prepare the recombinant gene of insect virus vector, with which the insect cell line SF-21 was infected to produce an enzyme protein (Guy P. M. et al., Journal of Biological Chemistry Vol. 267, pp.13851-13856, 1992). As substrate, the phosphorylated tyrosine domain of the HER3 protein was cloned to prepare the recombinant gene of plasmid vector with which Escherichia Coli strain JM109 was infected to give an enzyme protein (Sierke S. L. et al., Biochemistry Vol. 32, pp.10102-10108, 1993). The enzymatic reaction was performed by the enzyme-linked immunological method which consisted of fixing the substrate protein in wells of a 96-well microtiter plate, adding the enzyme into the wells and quantitating phosphorylated tyrosine, which was the reaction product, by use of the anti-phosphorylated tyrosine antibody (Cleaveland J. S. et al., Analytical Biochemistry Vol. 190, pp249-253, 1990).
Target sequence in this assay (P04626 720-987 limits assumed): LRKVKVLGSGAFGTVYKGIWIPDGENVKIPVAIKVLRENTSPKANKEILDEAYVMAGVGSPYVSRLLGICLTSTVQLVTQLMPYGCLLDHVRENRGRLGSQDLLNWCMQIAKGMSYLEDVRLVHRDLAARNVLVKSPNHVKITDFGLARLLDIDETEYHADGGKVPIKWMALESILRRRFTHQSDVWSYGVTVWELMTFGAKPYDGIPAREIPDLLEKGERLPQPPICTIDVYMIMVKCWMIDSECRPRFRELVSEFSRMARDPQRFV

[8] = system: human squamous cell carcinoma MH-85; conditions: Cancer Research, Vol.51, p.4430, 1991; cited from earlier work
[9] = system: human epidermal carcinoma cell line A431; conditions: Journal of Antibiotics, Vol.39, p.170, 1986; cited from earlier work
[10] = 120 mg/kg/day, 60 mg/kg twice daily for 10 days
[11] = 180 mg/kg/day, 90 mg/kg twice daily for 10 days

Row | SMILES | IC50 (MDA-MB-453 [1]) | IC50 (LNCaP) | IC50 (MCF-7) | IC50 (MDA-MB-453 [2]) | IC50 (PC3) | activity at 0.4 µM (HER2 [5]) | activity at 1.6 µM (HER2 [5]) | activity at 6.3 µM (HER2 [5]) | activity at 25 µM (HER2 [5]) | IC50 (T-47D) | IC50 (MDA-MB-453 [6]) | IC50 (HER2 [7]) | IC50 (MRC5) | Tumor growth rate (%) [3, 10] | Tumor growth rate (%) [4, 10] | Inhibition of implanted tumor growth [4] | Tumor growth rate (%) [3, 11] | Tumor growth rate (%) [4, 11] | Antitumor activity in vivo [8] | Inhibition of proliferation [9]
1 | C(=C\c1nc(COc2ccc(CCCCn3cncn3)cc2)co1)/c1ccccc1 [Compound 2, 1-[4-[4-[2-[(E)-2-phenylethenyl]-4-oxazolylmethoxy]phenyl]butyl]-1,2,4-triazole] |  |  |  |  |  |  |  |  |  |  | 0.66 µM | 67 µM |  |  |  |  |  |  |  | 
2 | c1csc(-c2nc3cc(COc4ccc(CCCCn5ccnc5)cc4)ccc3o2)c1 [Compound 80, 5-[4-[4-(1-imidazolyl)butyl]phenoxymethyl]-2-(2-thienyl)benzoxazole] | 0.09 µM | 1.6 µM | 0.01 µM | 0.09 µM | 6.5 µM | 46% | 40% | 34% |  |  |  |  | > 25 µM |  |  |  |  |  |  | 
3 | COc1cc2ncnc(Nc3cccc(Cl)c3)c2cc1OC [tyrphostin] |  |  |  |  |  |  |  |  |  |  |  |  |  |  |  |  |  |  | has antitumor activity | 
4 | O=CN/C=C/c1cc(O)ccc1O [erbstatin] |  |  |  |  |  |  |  |  |  |  |  |  |  |  |  |  |  |  |  | inhibits proliferation of human epidermal carcinoma cell line A431

Continued, in another order:

Row | IC50 (MDA-MB-453 [1]) | IC50 (LNCaP) | IC50 (MCF-7) | IC50 (MDA-MB-453 [2]) | IC50 (PC3) | activity at 0.4 µM (HER2 [5]) | activity at 1.6 µM (HER2 [5]) | activity at 6.3 µM (HER2 [5]) | activity at 25 µM (HER2 [5]) | IC50 (T-47D) | IC50 (MDA-MB-453 [6]) | IC50 (HER2 [7]) | SMILES | IC50 (MRC5) | Tumor growth rate (%) [3, 10] | Tumor growth rate (%) [4, 10] | Inhibition of implanted tumor growth [4] | Tumor growth rate (%) [3, 11] | Tumor growth rate (%) [4, 11] | Antitumor activity in vivo [8] | Inhibition of proliferation [9]
5 | 2.5 µM | 11 µM | 0.19 µM | 2.5 µM | 16 µM | 92% | 89% | 43% | 31% |  |  |  | Cc1ccc(-c2nc(COc3ccc(CCCn4ccnc4)cc3)co2)s1 [Compound 109, 4-[4-[3-(1-imidazolyl)propyl]phenoxymethyl]-2-(5-methyl-2-thienyl)oxazole] | > 25 µM | 35% | 28% | inhibiting tumor growth of hormone dependent prostate cancer LNCaP |  |  |  | 
6 | 1.7 µM | 7.9 µM | 0.62 µM | 1.7 µM | 9.5 µM | 96% | 48% | 19% | 7% | 3.5 µM |  |  | c1csc(-c2nc(COc3ccc(CCCn4ccnc4)cc3)co2)c1 [Compound 72, 4-[4-[3-(1-imidazolyl)propyl]phenoxymethyl]-2-(2-thienyl)oxazole] | > 25 µM | 84% | 91% | inhibiting tumor growth of hormone dependent prostate cancer LNCaP | 71% | 57% |  | 
7 | 4.8 µM | 5.6 µM | 1.1 µM | 4.8 µM | 15 µM | 93% | 86% | 45% | 25% |  |  |  | c1csc(-c2nc(COc3ccc(CCCn4ccnc4)cc3)cs2)c1 [Compound 94, 4-[4-[3-(1-imidazolyl)propyl]phenoxymethyl]-2-(2-thienyl)thiazole] | > 25 µM |  |  |  |  |  |  | 
